Results on one compound are retold here after PMC9738107, “Targeting of the ELR+CXCL/CXCR1/2 Pathway Is a Relevant Strategy for the Treatment of Paediatric Medulloblastomas” (Cells, 2022).

The structures appear in SMILES notation.

One data set deals with D341Med cells. Nature of the data set: XTT assay (cell metabolism/cytotoxicity). It counts as cell-based, human. The following applies: for IC50: Homo sapiens, D341 Med. From the text:
(§1) To evaluate the efficacy of this compound in MB cells, we first determined the relative IC50 values for each cell line using XTT assays (Figure 3A–E). The XTT assay is used to measure cellular metabolic activity (overall activity of mitochondrial dehydrogenases) as an indicator of cell viability, proliferation, and cytotoxicity. […] Overall, IC50 values for all cell lines were in the micromolar range, making C29 a very efficient agent to inhibit cell metabolism and viability.
(§2) Figure 3 A new pharmacological inhibitor of CXCR1/2, C29, inhibits the metabolism of MB cells. (A–D). Cytotoxic effect induced by C29 on Daoy (A), ONS-76 (B), HD-MB03 (C), and D341Med (D) cells. Cells were treated with increasing doses of the inhibitor for 24, 48, and 72 h. Cytotoxicity was measured using the XTT assay. Absorbance measurements were performed at […], n = 3. (E) Table with the different IC50 values for all conditions. (F) Cell death after 48 h of treatment with control (DMSO, CT) or C29 1, 2.5 or 5 µM treatment, on MB cells, and normal cells (N), n = 3. Statistics were performed using the one-way method ANOVA. ** p < 0.01, *** p < 0.001. For this figure, Daoy = Da, ONS-76 = O, HD-MB03 = HD, D341 = D3, C8D1A = C8. TEXT PRINTED IN THE PICTURE: (E) C29: IC50 (μM): 5.6 (Cell line: Daoy; 24h); IC50 (μM): 3 (Cell line: Daoy; 48h); IC50 (μM): 0.9 (Cell line: Daoy; 72h); IC50 (μM): 17.9 (Cell line: ONS-76; 24h); IC50 (μM): 6.8 (Cell line: ONS-76; 48h); IC50 (μM): 2.1 (Cell line: ONS-76; 72h); IC50 (μM): 2.6 (Cell line: HD-MB03; 24h); IC50 (μM): 1.8 (Cell line: HD-MB03; 48h); IC50 (μM): 1.3 (Cell line: HD-MB03; 72h); IC50 (μM): 7.5 (Cell line: D341Med; 24h); IC50 (μM): 4.9 (Cell line: D341Med; 48h); IC50 (μM): 4.6 (Cell line: D341Med; 72h)
(§3) centrations of C29 in 96‐well plates for 48h. 50μl/well of XTT solution (Cell Proliferation
(§4) kit II, Sigma‐Aldrich) were added to measure cell metabolism at 490 nm with GloMax‐ […]
(§5) 30 μg of proteins were separated on 10% SDS‐polyacrylamide
(§6) gels and transferred on PVDF membranes in Tris‐Glycine buffer (25 mM Tris, 192 mM
(§7) glycine, pH 8∙3) + 20% ethanol (v:v). Membranes were blocked with 3% BSA, at room tem‐
(§8) perature for 1 h, then immunoblotted overnight with primary antibodies diluted in 3%
(§9) BSA, at 4 °C. The following primary antibodies were used: AKT (CST, #9272S), phospho‐
(§10) ARD1 (homemade polyclonal rabbit antibody). Membranes were incubated with HRP‐
(§11) conjugated secondary antibodies anti‐rabbit IgG 1/5000e (Promega), at room temperature,
(§12) for 1h30. After washing, the Advansta WesternBright Quantum HRP substrate (Diagom‐
(§13) ics, Blagnac, France) was used as detection reagent.
In general terms: Tetrazolium assays rely on reduction of a dye to a coloured formazan, in cell work by metabolically active cells.

The next data set concerns Daoy cells. As to the kind of experiment: XTT assay (cell metabolism/cytotoxicity). Format: cell-based, human. To be noted: for IC50: Homo sapiens, Daoy.
From the text: as §1, §2, §3, §4, §5, §6, §7, §8, §9, §10, §11, §12, §13

The next data set concerns HD-MB03 cells. As to the kind of experiment: XTT assay (cell metabolism/cytotoxicity). It counts as cell-based, human. The following applies: for IC50: Homo sapiens.
From the text: as §1, §2, §3, §4, §5, §6, §7, §8, §9, §10, §11, §12, §13

The next data set deals with ONS-76 cells. Nature of the data set: XTT assay (cell metabolism/cytotoxicity). Format: cell-based, human. To be noted: for IC50: Homo sapiens.
From the text: as §1, §2, §3, §4, §5, §6, §7, §8, §9, §10, §11, §12, §13

The nature of a further data set: Lipophilicity (log D). The following applies: source not stated. Format: physicochemical.

Turning to `O=C(Nc1cccc(Cl)c1)Nc1nc2ccc([N+](=O)[O-])cc2s1` [C29, 1-(3-chlorophenyl)-3-(6-nitrobenzo[d]thiazol-2-yl) urea], the “Effect on cell metabolism at low concentrations” value in the data set on D341Med cells (D341Med, 72 h, 0.1 to 2.5 µM) is “stimulated metabolism”. The half-maximal inhibitory concentration (IC50) (commonly the concentration needed to halve the response being measured) in the data set with D341Med cells (D341Med, 24 h) turned out to be 7.5 µM; in the data set on D341Med cells (D341Med, 48 h), 4.9 µM; in the data set with D341Med cells (D341Med, 72 h) it was 4.6 µM; with Daoy cells (24 h), 5.6 µM; with Daoy cells (48 h), 3 µM; in the data set on Daoy cells (72 h) it was 0.9 µM. Also, the IC50 stood at 2.6 µM in the data set with HD-MB03 cells (HD-MB03, 24 h); 1.8 µM in the data set on HD-MB03 cells (HD-MB03, 48 h); 1.3 µM with HD-MB03 cells (HD-MB03, 72 h); 17.9 µM with ONS-76 cells (ONS-76, 24 h); 6.8 µM in the data set with ONS-76 cells (ONS-76, 48 h); 2.1 µM with ONS-76 cells (ONS-76, 72 h). For the same compound, the “Selectivity index (SI)” value is recorded as 3.94 in the data set on D341Med cells (IC50 normal cells (C8D1A) / IC50 D341Med), 6.44 in the data set with Daoy cells (IC50 normal cells (C8D1A) / IC50 Daoy), 10.7 in the data set on HD-MB03 cells (IC50 normal cells (C8D1A) / IC50 HD-MB03) and 2.84 with ONS-76 cells (IC50 normal cells (C8D1A) / IC50 ONS-76). In the data set “Lipophilicity (log D)”, the pH-dependent lipophilicity (logD) (usually lipophilicity at a set pH, counting ionised and neutral species) was roughly 3.
